Our source for the IC50 values is patent US20060161001A1, “Substituted heterocyclic compounds and methods of use” (Amgen Inc., priority 2004, published 2006).

Structures are written as SMILES.

The test system of this assay is LPS induced TNF release. Put plainly: THP1 cell assay (LPS induced TNF release). The conditions noted are these: Homo sapiens, THP-1; THP1 cells, LPS induced TNF-α secretion, 3 h at 37° C. In kind it is cell-based. The protocol: Lipopolysaccharide-Activated THP1 Cell TNF Production Assay
THP1 cells are resuspended in fresh THP1 media (RPMI 1640, 10% heat-inactivated FBS, 1XPGS, 1XNEAA, plus 30 μM OME) at a concentration of 1E6/mL. One hundred microliters of cells per well are plated in a polystyrene 96-well tissue culture. One microgram per mL of bacterial LPS is prepared in THP1 media and is transferred to the wells. Test compounds are dissolved in 100% DMSO and are serially diluted 3-fold in a polypropylene 96-well microtiter plate (drug plate). HI control and LO control wells contain only DMSO. One microliter of test compound from the drug plate followed by 10 μL of LPS are transferred to the cell plate. The treated cells are induced to synthesize and secrete TNF-α at 37° C. for 3 h. Forty microliters of conditioned media are transferred to a 96-well polypropylene plate containing 110 μL of ECL buffer (50 mM Tris-HCl pH 8.0, 100 mM NaCl, 0.05% Tween 20, 0.05% NaN3 and 1% FBS) supplemented with 0.44 nM MAB610 monoclonal Ab (R&D Systems), 0.34 nM ruthenylated AF210NA polyclonal Ab (R&D Systems) and 44 μg/mL sheep anti-mouse M280 Dynabeads (Dynal). After a 2 h incubation at RT with shaking, the reaction is read on the ECL M8 Instrument (IGEN Inc.). A low voltage is applied to the ruthenylated TNF-α immune complexes, which in the presence of TPA (the active component in Origlo), results in a cyclical redox reaction generating light at […]. The amount of secreted TNF-α in the presence of compound compared with that in the presence of DMSO vehicle alone (HI control) is calculated using the formula: % control (POC)=(cpd−average LO)/(average HI−average LO)*100. Data (consisting of POC and inhibitor concentration in μM) is fitted to a 4-parameter equation (y=A+((B−A)/(I+((x/C)ˆD))), where A is the minimum y (POC) value, B is the maximum y (POC), C is the x (cpd concentration) at the point of inflection and D is the slope factor) using a Levenburg-Marquardt non-linear regression algorithm.

By IC50 is commonly meant the midpoint of a concentration-inhibition curve. A high value points to lower potency. `CC(C)NC1CCC(Nc2nccc(N3CCCc4cnc(-c5ccccc5)cc43)n2)CC1` [Example 37, (1R,4R)-N^1-Isopropyl-N^4-(4-(7-phenyl-3,4-dihydro-1,6-naphthyridin-1(2H)-yl)-pyrimidin-2-yl)cyclohexane-1,4-diamine] registered an IC50 of no more than 20 µM.
The result for `C[C@@H](Cc1cccc(CN)c1)Nc1nccc(N2CCCc3cnc(-c4ccccc4)cc32)n1` [Example 38] reads no more than 20 µM; that for `C[C@@H](Cc1cccc(C(C)(C)N)c1)Nc1nccc(N2CCCc3cnc(-c4ccccc4)cc32)n1` [Example 39, (S)-N-(1-(3-(2-Aminopropan-2-yl)phenyl)propan-2-yl)-4-(7-phenyl-3,4-dihydro-1,6-naphthyridin-1(2H)-yl) pyrimidin-2-amine], no more than 20 µM.
In the case of `CC(C)(Cc1ccc(F)cc1)Nc1nccc(N2CCCc3cnc(-c4ccccc4)cc32)n1` [Example 40, N-(1-(4-Fluorophenyl)-2-methylpropan-2-yl)-4-(7-phenyl-3,4-dihydro-1,6-naphthyridin-1(2H)-yl) pyrimidin-2-amine], the IC50 was no more than 20 µM.
In the case of `CC(C)(CN)Nc1nccc(N2CCCc3cnc(-c4ccccc4)cc32)n1` [Example 41, N-(1-Amino-2-methylpropan-2-yl)-4-(7-phenyl-3,4-dihydro-1,6-naphthyridin-1(2H)-yl)pyrimidin-2-amine], the 50% inhibitory concentration (IC50) is no more than 20 µM.
In turn, `CC(=O)NCC(C)(C)Nc1nccc(N2CCCc3cnc(-c4ccccc4)cc32)n1` [Example 42, N-(2-Methyl-2-(4-(7-phenyl-3,4-dihydro-1,6-naphthyridin-1(2H)-yl)pyrimidin-2-ylamino)propyl)acetamide] displayed an IC50 of no more than 20 µM.
Take `CC(C)NCC(C)(C)Nc1nccc(N2CCCc3cnc(-c4ccccc4)cc32)n1` [Example 43, N-(1-(Isopropylamino)-2-methylpropan-2-yl)-4-(7-phenyl-3,4-dihydro-1,6-naphthyridin-1(2H)-yl) pyrimidin-2-amine]: the 50% inhibitory concentration (IC50) was no more than 20 µM.
In turn, `c1ccc(CCNc2nccc(N3CCCc4ccc(-c5ccccc5)nc43)n2)cc1` [Example 47, N-Phenethyl-4-(7-phenyl-3,4-dihydro-1,8-naphthyridin-1(2H)-yl)pyrimidin-2-amine] registered an IC50 of no more than 20 µM.
The value for `CC(Cc1cccc(CO)c1)Nc1nccc(N2CCCc3ccc(-c4ccccc4)nc32)n1` (centres unmarked) [Example 48, (3-(2-(4-(7-Phenyl-3,4-dihydro-1,8-naphthyridin-1(2H)-yl)pyrimidin-2-yl-amino)propyl)phenyl)methanol] was no more than 20 µM.
The result for `CC(Cc1cccc(CN)c1)Nc1nccc(N2CCCc3ccc(-c4ccccc4)nc32)n1` (centres unmarked) [Example 49, N-(1-(3-(Aminomethyl)phenyl)propan-2-yl)-4-(7-phenyl-3,4-dihydro-1,8-naphthyridin-1(2H)-yl)pyrimidin-2-amine] reads no more than 20 µM.
Take `c1ccc(-c2ccc3c(n2)N(c2ccnc(NCCc4cccnc4)n2)CCC3)cc1` [Example 50, 4-(7-Phenyl-3,4-dihydro-1,8-naphthyridin-1(2H)-yl)-N-(2-(pyridin-3-yl)ethyl)-pyrimidin-2-amine]: the concentration for half-maximal inhibition (IC50) was no more than 20 µM.
In the case of `CN(C)CC(C)(C)CNc1nccc(N2CCCc3ccc(-c4ccccc4)nc32)n1` [Example 51, N-(3-(Dimethylamino)-2,2-dimethylpropyl)-4-(7-phenyl-3,4-dihydro-1,8-naphthyridin-1(2H)-yl)pyrimidin-2-amine], the IC50 is no more than 20 µM.
The result for `CC(C)(C)CNc1nccc(N2CCCc3ccc(-c4ccccc4)nc32)n1` [Example 52, N-Neopentyl-4-(7-phenyl-3,4-dihydro-1,8-naphthyridin-1(2H)-yl)pyrimidin-2-amine] reads no more than 20 µM; that for `CC(C)(N)CNc1nccc(N2CCCc3ccc(-c4ccccc4)nc32)n1` [Example 53, N-(2-Amino-2-methylpropyl)-4-(7-phenyl-3,4-dihydro-1,8-naphthyridin-1(2H)-yl)-pyrimidin-2-amine], no more than 20 µM; that for `CC(C)(C)OC(=O)N1CCC(Nc2nccc(N3CCCc4ccc(-c5ccccc5)nc43)n2)CC1` [Example 54, tert-Butyl 4-(4-(7-phenyl-3,4-dihydro-1,8-naphthyridin-1(2H)-yl)pyrimidin-2-yl-amino)piperidine-1-carboxylate], no more than 20 µM.
Consider `FC(F)(F)c1cc(N2CCCc3ccc(-c4ccccc4)nc32)nc(NCCc2ccccc2)n1` [Example 56, N-Phenethyl-4-(7-phenyl-3,4-dihydro-1,8-naphthyridin-1(2H)-yl)-6-(trifluoromethyl)pyrimidin-2-amine], for which the half-inhibitory concentration (IC50) was no more than 20 µM.
The value for `CC(Cc1cccc(CO)c1)Nc1nc(N2CCCc3ccc(-c4ccccc4)nc32)cc(C(F)(F)F)n1` (centres unmarked) [Example 57, (3-(2-(4-(7-Phenyl-3,4-dihydro-1,8-naphthyridin-1(2H)-yl)-6-(trifluoromethyl)-pyrimidin-2-ylamino)propyl)phenyl)methanol] was no more than 20 µM; that for `CC(Cc1cccc(CN)c1)Nc1nc(N2CCCc3ccc(-c4ccccc4)nc32)cc(C(F)(F)F)n1` (centres unmarked) [Example 58, N-(1-(3-(Aminomethyl)phenyl)propan-2-yl)-4-(7-phenyl-3,4-dihydro-1,8-naphthyridin-1(2H)-yl)-6-(trifluoromethyl)pyrimidin-2-amine] was no more than 20 µM.
The result for `Cc1cc(N2CCCc3ccc(-c4ccccc4)nc32)nc(F)n1` [Example 59, 1-(2-Fluoro-6-methylpyrimidin-4-yl)-7-phenyl-1,2,3,4-tetrahydro-1,8-naphthyridine] reads no more than 20 µM.
Compound `Cc1cc(N2CCCc3ccc(-c4ccccc4)nc32)nc(NC2CCN(C(=O)OC(C)(C)C)CC2)n1` [Example 60, tert-Butyl 4-(4-methyl-6-(7-phenyl-3,4-dihydro-1,8-naphthyridin-1(2H)-yl)-pyrimidin-2-ylamino)piperidine-1-carboxylate] had an IC50 of no more than 20 µM.
As for `Cc1cc(N2CCCc3ccc(-c4ccccc4)nc32)nc(N[C@@H](C)Cc2cccc([C@@H](C)NC(=O)OC(C)(C)C)c2)n1` [Example 61, tert-Butyl (R)-1-(3-((S)-2-(4-methyl-6-(7-phenyl-3,4-dihydro-1,8-naphthyridin-1 (2H)-yl)pyrimidin-2-ylamino)propyl)phenyl)ethylcarbamate], the IC50 is no more than 20 µM.
With `Cc1cc(N2CCCc3ccc(-c4ccccc4)nc32)nc(N[C@@H](C)Cc2cccc([C@@H](C)N)c2)n1` [Example 62, N-((S)-1-(3-((R)-1-Aminoethyl)phenyl)propan-2-yl)-4-methyl-6-(7-phenyl-3,4-dihydro-1,8-naphthyridin-1(2H)-yl)pyrimidin-2-amine], the IC50 is no more than 20 µM.
The compound `CCOC(=O)c1cc2c(nc1-c1ccccc1)N(c1ccnc(NCCc3ccccc3)n1)CCC2` [Example 66, Ethyl 8-(2-(Phenethylamino)pyrimidin-4-yl)-2-phenyl-5,6,7,8-tetrahydro-1,8-naphthyridine-3-carboxylate] returned a half-maximal inhibitory concentration (IC50) of no more than 20 µM.
The value for `OCc1cc2c(nc1-c1ccccc1)N(c1ccnc(NCCc3ccccc3)n1)CCC2` [Example 67, (8-(2-(Phenethylamino)pyrimidin-4-yl)-2-phenyl-5,6,7,8-tetrahydro-1,8-naphthyridin-3-yl)methanol] was no more than 20 µM; that for `COCc1cc2c(nc1-c1ccccc1)N(c1ccnc(NCCc3ccccc3)n1)CCC2` [Example 68, 4-(6-(Methoxymethyl)-7-phenyl-3,4-dihydro-1,8-naphthyridin-1(2H)-yl)-N-phenethylpyrimidin-2-amine] was no more than 20 µM.
The result for `O=C(O)c1cc2c(nc1-c1ccccc1)N(c1ccnc(NCCc3ccccc3)n1)CCC2` [Example 69, 8-(2-(Phenethylamino)pyrimidin-4-yl)-2-phenyl-5,6,7,8-tetrahydro-1,8-naphthyridine-3-carboxylic acid] reads no more than 20 µM.
The value for `CNCc1cc2c(nc1-c1ccccc1)N(c1ccnc(NCCc3ccccc3)n1)CCC2` [Example 70, 4-(6-((Methylamino)methyl)-7-phenyl-3,4-dihydro-1,8-naphthyridin-1(2H)-yl)-N-phenethylpyrimidin-2-amine] was no more than 20 µM.
Consider `CN(C)Cc1cc2c(nc1-c1ccccc1)N(c1ccnc(NCCc3ccccc3)n1)CCC2` [Example 71, 4-(6-((Dimethylamino)methyl)-7-phenyl-3,4-dihydro-1,8-naphthyridin-1(2H)-yl)-N-phenethylpyrimidin-2-amine], for which the IC50 is no more than 20 µM.
Consider `CC(=O)c1cc2c(nc1-c1ccccc1)N(c1ccnc(NCCc3ccccc3)n1)CCC2` [Example 72, 1-(8-(2-(Phenethylamino)pyrimidin-4-yl)-2-phenyl-5,6,7,8-tetrahydro-1,8-naphthyridin-3-yl)ethanone], for which the IC50 was no more than 20 µM.
